Results reported in PubChem BioAssay (NCI).
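96-well plates; 48 h exposure; 5 concentrations. Endpoints by linear interpolation between flanking doses. Not reached: highest tested concentration assigned. GI50 = concentration required for 50% inhibition of growth. TGI: concentration producing complete growth inhibition.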

Experiments:
Experiment in all cases: NCI-60 cell line screen, 48 h
UACC-257 melanoma = test system: UACC-257 melanoma
MALME-3M melanoma = test system: MALME-3M melanoma
KM12 colon = test system: KM12 colon
TK-10 renal = test system: TK-10 renal
COLO 205 colon = test system: COLO 205 colon
SR leukemia = test system: SR leukemia
SK-MEL-28 melanoma = test system: SK-MEL-28 melanoma
HL-60(TB) leukemia = test system: HL-60(TB) leukemia
IGROV1 ovarian = test system: IGROV1 ovarian
MOLT-4 leukemia = test system: MOLT-4 leukemia
HOP-62 NSCLC = test system: HOP-62 NSCLC
HT29 colon = test system: HT29 colon
A498 renal = test system: A498 renal
HCT-15 colon = test system: HCT-15 colon
SK-OV-3 ovarian = test system: SK-OV-3 ovarian
PC-3 prostate = test system: PC-3 prostate
OVCAR-4 ovarian = test system: OVCAR-4 ovarian

Row | Structure (SMILES) | TGI (UACC-257 melanoma) [µM] | TGI (MALME-3M melanoma) [µM] | TGI (KM12 colon) [µM] | TGI (TK-10 renal) [µM] | TGI (COLO 205 colon) [µM] | TGI (SR leukemia) [µM] | TGI (SK-MEL-28 melanoma) [µM] | TGI (HL-60(TB) leukemia) [µM] | TGI (IGROV1 ovarian) [µM] | GI50 (MOLT-4 leukemia) [µM] | TGI (MOLT-4 leukemia) [µM] | TGI (HOP-62 NSCLC) [µM] | TGI (HT29 colon) [µM] | TGI (A498 renal) [µM] | TGI (HCT-15 colon) [µM] | TGI (SK-OV-3 ovarian) [µM] | TGI (PC-3 prostate) [µM] | TGI (OVCAR-4 ovarian) [µM] | GI50 (SR leukemia) [µM] | GI50 (OVCAR-4 ovarian) [µM]
1 | CC(C)C(=O)CC(c1ccc(Cl)cc1)N1N=C(C(C)C)CC1c1ccc(Cl)cc1 (stereo not drawn) | 49.5 | > 100 | > 100 | > 100 | > 100 | 28.2 | > 100 | 76.8 | > 100 | 22.4 | 83.4 | > 100 | > 100 | – | – | – | – | – | – | –
2 | O=C(O)CCc1nc2ccccc2[nH]1 | > 100 | > 100 | > 100 | > 100 | > 100 | > 100 | > 100 | > 100 | > 100 | – | > 100 | > 100 | > 100 | > 100 | > 100 | > 100 | > 100 | > 100 | – | –
3 | O=C(O)c1cc(=O)c2c(OCC(O)COc3cccc4oc(C(=O)O)cc(=O)c34)cccc2o1 | > 100 | > 100 | > 100 | > 100 | > 100 | > 100 | > 100 | > 100 | > 94.9 | – | > 100 | > 100 | > 100 | > 83.6 | > 100 | > 100 | > 100 | > 100 | – | –
4 | C/C(=N\NC(=S)NCCCCNC(=S)N/N=C(\C)c1ccccn1)c1ccccc1 | 9.64 | > 52.4 | > 100 | 40.6 | – | 2.17 | > 100 | – | > 28.8 | – | > 30.5 | 6 | > 100 | 15 | > 100 | 38.9 | > 100 | > 54.2 | – | –
5 | COc1ccc(C(O)(c2ccccc2)c2nccc3ccccc23)cc1 (stereo not drawn) | > 100 | 7.27 | > 100 | > 100 | > 100 | > 100 | > 100 | > 100 | > 100 | – | 11.9 | > 100 | > 100 | – | > 100 | > 100 | > 100 | > 100 | – | –
6 | COc1ccc(-c2cc(-c3ccc(O)cc3O)c(C#N)c(=O)[nH]2)cc1 | 70.8 | 70.4 | > 100 | > 100 | 31.6 | 53.4 | 33.5 | 65.4 | – | – | 55.1 | 41.1 | 34.6 | – | > 100 | 33.8 | 35.4 | 60 | – | –
7 | NNC(=O)CCSc1ccccc1 | > 100 | > 100 | > 100 | > 100 | > 100 | > 100 | > 100 | > 100 | > 100 | – | > 100 | > 100 | > 100 | > 100 | > 100 | > 100 | > 100 | > 100 | – | –
8 | COc1cc2c(cc1OCCCOS(C)(=O)=O)N=C[C@@H]1CCCN1C2=O | > 100 | > 100 | > 100 | > 100 | > 100 | > 100 | > 100 | > 100 | > 100 | – | > 100 | – | > 100 | > 100 | > 100 | > 100 | – | > 100 | 62.9 | 70.4
9 | COc1cc2cc(C(=O)Nc3cc4n(n3)-c3ccccc3C4)[nH]c2c(OC)c1OC | 9.26 | 6.43 | 7.83 | 9.27 | 9.45 | 11.5 | 9.66 | 6.1 | 9.79 | – | 2.2 | 6.43 | 25.5 | 50 | 9.61 | 19.4 | 10.4 | 6.16 | – | –
10 | Cc1[nH]c(=O)[nH]c(=O)c1/C=C/C(=O)NC(CO)CS(=O)Cc1ccccc1 (stereo not drawn) | > 300 | > 300 | > 300 | – | > 300 | – | > 300 | > 300 | > 300 | – | > 300 | > 300 | > 300 | > 300 | > 300 | > 300 | – | – | – | –
11 | O=c1/c(=C/c2ccc([N+](=O)[O-])o2)sc2n1[C@@H](c1ccc(Cl)cc1)C=C(c1cc(F)c(Cl)cc1Cl)N=2 | 30.6 | 33.9 | > 100 | 36.2 | 16.2 | – | > 100 | 49.2 | 31.7 | – | 45.9 | 30.6 | 23.2 | > 100 | 26.7 | 50.8 | 32.7 | 30.8 | – | –
12 | Cc1ccc([N+](=O)[O-])cc1S(=O)(=O)Nc1ccc(C2=NOC(c3cccs3)C2)cc1 (stereo not drawn) | 49.6 | > 100 | 29.1 | 50.3 | > 100 | 11.5 | > 100 | 25.7 | 30 | – | 22.3 | 29.1 | 40.2 | 36.7 | 28.5 | 52.2 | > 100 | 32.3 | – | –
13 | N#CCCN(CCC#N)c1ccc(/C=C(\NC(=O)c2cc([N+](=O)[O-])ccc2Cl)C(=O)Nc2ccccc2)cc1 | – | – | > 100 | > 100 | > 100 | > 100 | > 100 | – | > 100 | – | > 100 | > 100 | – | – | > 100 | > 100 | – | > 100 | – | –
14 | c1ccc(C(NC2=NCCO2)c2ccccc2)cc1 | – | > 10 | > 10 | > 10 | > 10 | > 10 | > 10 | > 10 | > 10 | – | > 10 | > 10 | > 10 | > 10 | > 10 | > 10 | > 10 | > 10 | – | –
15 | Cc1c(Cl)nc(Cl)nc1Cl | 5.67 | 2.68 | 6.15 | 7.16 | 1.15 | 10.8 | 8.5 | – | 8.33 | – | 1.38 | 9.22 | 6.4 | 11.9 | 1.25 | 11.7 | 5.35 | 2.8 | – | –
16 | Cn1ccc(C(=O)NCCN(CCNC(=O)c2ccn(C)c(=O)c2O)CCNC(=O)c2ccn(C)c(=O)c2O)c(O)c1=O | > 100 | > 100 | > 100 | > 100 | > 100 | > 100 | > 100 | > 100 | > 100 | – | – | > 100 | > 100 | > 100 | > 100 | > 100 | > 100 | > 100 | – | –
17 | CC(=O)O[C@@H]1C(=O)N(c2ccccc2)[C@@H]1c1cc2ccccc2c2ccccc12 | > 100 | 88.9 | > 100 | > 100 | 32.3 | 52.9 | > 100 | 58.2 | 61.9 | – | 56 | > 100 | > 100 | > 100 | > 100 | > 100 | > 100 | 78.5 | – | –
18 | CCOC(=O)C(Cc1cn(C(C)=O)c2ccccc12)P(=O)(OCC)OCC (stereo not drawn) | > 100 | – | – | > 100 | > 100 | > 100 | > 100 | – | > 100 | – | > 100 | > 100 | > 100 | – | > 100 | > 100 | > 100 | > 100 | – | –
19 | CCCn1cc2c(SC)nc(SC)nc2n1 | > 100 | > 100 | > 100 | > 100 | > 100 | > 100 | > 100 | > 100 | > 100 | – | > 100 | – | > 100 | > 100 | > 100 | – | – | > 100 | – | –
